Source: US20170112760A1, “CELL DELIVERY SYSTEM AND METHOD” (The Queen's University of Belfast, priority 2014, published 2017)
Where two headings read alike, the source gives them in different places. Ends that are not written are not given here.

What was measured:
[1] = system: PC-3 prostate cancer cells; assay: Cell proliferation assay (manual cell counts), bisphosphonates and RALA/BP nanoparticles; conditions: for maximum cell kill: FIG. 51
Description: FIG. 51: Cell viability was evaluated by manual counting of the viable adherent cells using a haemocytometer. PC-3 prostate cancer cells were seeded in a 96-well flat-bottom tissue culture plate at a density of 1×10^4 cells per well and incubated in complete culture medium for 24 h. Two hours prior to transfection the cells were conditioned in OptiMEM serum-free medium and subsequently treated with solutions of BP to achieve a final exposure concentration of 5 μM to 1 mM. RALA/BP nanoparticles were prepared using a mass ratio of 10:1 such that the final concentration of BP per well was in the range 5 μM to 75 μM. Cells were incubated at 37° C. with 5% CO2 for 6 h before medium was replaced with completed culture medium and left to incubate for 72 h. Following incubation the cells were trypsinised and counted. Cell viability was expressed as a percentage of the untreated control where the untreated control is considered to be 100% viable. Dose-response curves were obtained for free BP and RALA/BP allowing determination of EC50 values for each. EC50 values refer to the concentration that induces a response halfway between the baseline and the maximum plateau obtained.
Cell viability was evaluated by manual counting of the viable adherent cells using a haemocytometer as described in. PC-3 prostate cancer cells were seeded in a 96-well flat-bottom tissue culture plate at a density of 1×10^4 cells per well and incubated in complete culture medium for 24 h. Two hours prior to transfection the cells were conditioned in OptiMEM serum-free medium (Invitrogen, UK) optimised for transfection. Cells were treated with solutions of BP to achieve a final exposure concentration of 5 μM to 1 mM. RALA/BP nanoparticles were prepared using a mass ratio of 10:1 such that the final concentration of BP per well was in the range 5 μM to 75 μM. Cells were incubated at 37° C. with 5% CO2 for 6 h before medium was replaced with completed culture medium and left to incubate for 72 h. Following incubation the cells were trypsinised and counted. Cell viability was expressed as a percentage of the untreated control where the untreated control is considered to be 100% viable. Dose-response curves were obtained for free BP and RALA/BP allowing determination of EC50 values for each. EC50 values refer to the concentration that induces a response halfway between the baseline and the maximum plateau obtained (FIG. 46, 51).

[2] = system: ZR-75-1 cells; assay: Transfection with peptide/pEGFP-N1 nanoparticles, GFP expression by flow cytometry; assay type: cell-based; conditions: for Transfection Efficiency in ZR-75-1 Cells: peptide/DNA nanoparticles, N:P10
Description: In order to test the RALA in vitro, small scale transfections were performed carried out. 5×10^4 cells were seeded onto each well of a 96 well plate and the cells incubated under with complete medium standard conditions for 48 hours. The medium was subsequently removed from the plates and 100 μl of transfection medium (Optimem Invitrogen, UK) was added to each well. Cells were incubated for 2 hours at 37° C. and 5% CO2 standard conditions. In the meanwhile complexes were made up using 1 μg of plasmid DNA with the RALA vector and added to the cells when the two hours had passed. 100 μl of the each N:P ratio were added to each well of the cells. Cells were then incubated for a further 4 hours under standard conditions and the medium with RPMI-1640 supplemented with +10% FCS. (FIG. 4, 31(+Chloroquine), 32 (+Bafilomycin), 33 (+KALA NPs), 34 (+Lipofectamine), 35).
ZR-75-1 & PC-3 cells that were transfected with RALA/pEGFP-N1 complexes were trypsinised and washed twice with 2% formaldehyde in phosphate buffered saline. The expression of green fluorescent protein was measured by flow cytometry using FACS calibur system (BD Bioscience, UK). The data was analysed using the Flo-Jo software program and fluorescent intensity is reported at 4% gating. (FIG. 7b, 11, 31, 32, 33, 34, 35, 57 (+RAT/pEGFP-N1)).

[3] = Nanoparticle size and charge analysis (DLS, zeta potential, Malvern Zetasizer); assay type: physicochemical; conditions: peptide/DNA nanoparticles, N:P10
Description: In order to obtain particle size and charge distributions the mean hydrodynamic particle size measurements RALA complexes were performed using Dynamic Light Scattering (DLS). Dynamic Light Scattering is based upon the principle that when particles are illuminated with a laser, due to Brownian motion there will be scattering of the light. The intensity of the scattered light fluctuates as a result of this Brownian motion caused by bombardment of the particles by solvent molecules. A correlation curve reflecting the decay rate is generated based on fluctuations of the scattered light where a slower correlation decay rate represents a slower moving particle. Based on the Stokes-Einstein equation larger particles move more slowly and, thus, the correlation function can be used to determine the size distribution of the particles. dynamic light scattering (DLS) was used.
Surface charge measurements of the RALA nanoparticles were determined by Laser Doppler Velocimetry. The zeta potential of the particles was measured using disposable foltable zeta cuvettes. Zeta cuvettes for the measurement of zeta potential were first washed with 70% ethanol, followed by two rinses with double distilled H2O prior to loading the sample. Enough diluted sample used for size measurement was used for determination of zeta potential.
The nanoparticles were made up at an appropriate range of N:P ratios with at least using 2 μg of DNA in each sample. Nanoparticles were analysed using either and analysis was completed on either the Zetasizer-HS3000 (Malvern Instruments) or the Zetasizer-Nano instrument with DTS software (Malvern Instruments, UK). Zetasizer-Nano (Malvern Instruments) (FIGS. 3, 9, 17-21, 41, 48 & 55).

[4] = Immune response on repeated intravenous administration (ELISAs, Greiss test); assay type: in vivo, C57/BL6 mice; conditions: first week
Description: FIG. 8: Immune response of C57BL/6 mice injected with PBS only, PEI only, RALA only, DNA only, PEI/DNA or RALA/DNA nanoparticles. For each injection the equivalent to N:P 10 with 10 μg of DNA was injected. Mice received one injection per week for three weeks. 48 h after each injection three mice were sacrificed and the serum was extracted for analysis. a) IgG, b) IgM, c) IL-1β, d) IL-6 and e) Greiss test for total nitrites.
For the harvesting of blood and intraperitoneal macrophages, cervical dislocation was the preferred method of euthanasia. Cardiac puncture was performed using a 21 G gauge needle (BD Biosciences, UK). The needle was placed horizontally slightly to the left side of the sternum to go up through the diaphragm. The needle was then withdrawn very slowly until 500 μl of blood was collected and placed in an eppendorf. The eppendorf was then stored at room temperature with an open lid to facilitate coagulation. After 30 min the eppendorfs were centrifuged at 2000 rpm for 10 min. The supernatant containing the serum was carefully decanted and placed into a clean eppendorf and stored at −20° C. until further use. When harvesting intraperitoneal macrophages an incision was made and the peritoneal cavity was flushed out with 30% sucrose (Sigma, UK) solution. The macrophages were stored at 4° C. until they could be cultured (FIG. 8). […]

[5] = system: PC-3 prostate cancer cell xenograft; assay: PC-3 xenograft model, intratumoural RALA/alendronate; assay type: in vivo, BALB-C SCID mice; conditions: thrice weekly

CC(O)(P(=O)(O)O)P(=O)(O)O [etidronate]
percentage cell survival with increasing BP ([1]; FIG. 51d): no reduction in percentage cell survival with increasing BP

WEARLARALARALARHLRACEA (22mer protein sequence (Table 2)) [Peptide 22mer, comparative peptide, reference compound]
ability to condense DNA into nanoparticles and transfect cells [2]: unable to condense DNA into nanoparticles and transfect cells

O=P(O)(O)C(O)(Cn1ccnc1)P(=O)(O)O [zoledronate]
EC50 [1]: 27.6 µM
maximum cell kill [1]: 82%

REARLARALARALARLARALARALRACEA (amphipathic peptide sequence (Table 2)) [Peptide 4, H Removed and W replaced with R]
Charge (mV) [3]: 12 mV
Transfection Efficiency in ZR-75-1 Cells [2]: 50%

WEARLARALARALARLARALARALRACEA (amphipathic peptide sequence (Table 2)) [Peptide 2, H removed]
Charge (mV) [3]: 22 mV
Transfection Efficiency in ZR-75-1 Cells [2]: 55%

WEARLARALARALARHLARALARALRACEA [RALA]
TNFα response [4]: significantly lower initial response of TNFα than the PEI only treated animals

NCCCC(O)(P(=O)(O)O)P(=O)(O)O [alendronate]
effect on tumour growth vs untreated control [5]: high statistical significance when compared to the untreated control
EC50 ([1]; FIG. 16: 10 μM to 250 μM, six hours, 72 hours recovery): 97.9 µM
EC50 ([1]; FIG. 51: 6 h treatment, 72 h incubation, mass ratio 10:1): 100 µM

O=P(O)(O)C(O)(Cc1cccnc1)P(=O)(O)O [risedronate]
EC50 [1]: 78 µM
maximum cell kill [1]: 20%

REARLARALARALARLARALARALRAREA (amphipathic peptide sequence (Table 2)) [Peptide 5, H Removed and W replaced with R and C replaced with R]
Charge (mV) [3]: 13 mV
Transfection Efficiency in ZR-75-1 Cells [2]: 46%

REARLARALARALARELARALARALRAREA (amphipathic peptide sequence (Table 2)) [Peptide 6, H Replaced with E and W replaced with R and C replaced with R]
Best Size (nm) [3]: 308 nm
Charge (mV) [3]: 6 mV
Transfection Efficiency in ZR-75-1 Cells [2]: 43%

WEARLARALARALARELARALARALRACEA (amphipathic peptide sequence (Table 2)) [Peptide 3, H replaced with glutamic acid (E)]
Charge (mV) [3]: 24 mV
Transfection Efficiency in ZR-75-1 Cells [2]: 41%
